Experimental data: patent US9938250B2, “Antifibrotic effects of oxetanyl sulfoxides” (University of Pittsburgh—Of the Commonwealth System of …, priority 2015, dated 2018)
“Also recorded” adds a separate entry of the source.

Assays:
[1] = discussion, comparison of DMSO with MMS-350; cited from earlier work
[2] = tested on: C57BL/6J mice; test: Bleomycin-induced pulmonary fibrosis in mice; format: in vivo
Experimental: Pulmonary fibrosis was induced in male 6- to 8-week-old C57BL/6J mice by intratracheal administration of 1 mg/kg of Bleomycin (Enzo) in a total volume of 50 uL. Mice were orally administered either 200 uL of PBS or MMS-350 (2%) on a daily basis and lungs were harvested after 5 and 14 days. Right lungs were fixed in 10% neutralized formalin and paraffin embedded. Left lungs were frozen for hydroxyproline assay and total RNA extraction.
Six-micrometer sections of paraffin-embedded mouse lung tissues were stained with H&E and images were taken on an Olympus Provis III microscope (Olympus America Inc.) with identical settings.
Hydroxyproline assay. The hydroxyproline content of mouse lung tissues obtained on day 14 was measured as described (41) and adjusted by lung weight.
Frozen mouse lung tissues obtained on day 5 were placed in 1.5 mL of RNase free Red Bead Lysis Kit tubes (Next Advance) containing 500 uL of TRIzol® Reagent (Life Technologies) and homogenized using BBX24 Bullet Blender® (Next Advance). Total RNA was extracted and purified with RNeasy Mini Kit (Qiagen). Reverse transcription was performed with SuperScript II (Invitrogen) followed by quantitative polymerase chain reaction (PCR) amplification with the TaqMan method (ABI Prism 7300; Applied Biosystems). Premixed PCR primers and TaqMan probes for mouse collagen 1A2 and GAPDH were obtained from Applied Biosystems. Gene expression levels were normalized to GAPDH and compared with the 2^−ΔΔCt method.

[3] = tested on: primary human fibroblasts; test: TGFβ-induced fibrotic markers in primary human lung fibroblasts, immunoblotting; format: cell-based
Experimental: All tissues were obtained under a protocol approved by the Institutional Review Board of the University of Pittsburgh and with written consent. Primary human fibroblasts were cultured from the lung tissues of normal donors and patients undergoing lung transplantation. Fibroblasts were grown in Dulbecco's modified Eagle's medium (DMEM) supplemented with 10% fetal bovine serum (FBS), 100 U/mL penicillin, […] streptomycin and […] amphotericin B, and maintained at 37° C. in 5% CO2 humidified incubator. Three strains of normal primary human fibroblasts were plated on 6-well plates at a seeding density of 2.5×10^5 cells per well. Cells were serum starved for 6-16 h and treated with vehicle, TGFβ (10 ng/mL), MMS-350 (0.5 mg/mL), or TGFβ+MMS-350. Experiments using KRL507-031 were performed similarly. The cell lysates and culture supernatants were harvested 72 h after treatment and analyzed by immunoblotting.
Fibroblasts were rinsed with 1× PBS, scraped into 100 μL of 2×-sodium dodecyl sulfate (SDS) sample buffer, and boiled for 5 min. Equal protein amounts of cell lysates or supernatants were resolved on 10-12% sodium dodecyl sulfate polyacrylamide (SDS-PAGE) gels. Proteins were transferred to 0.2 μm nitrocellulose membranes (Whatman, Germany) and blocked with 5% nonfat dry milk in TBS-Tween 20 for 1 h at room temperature. Membranes were incubated with primary antibodies overnight at 4° C. followed by horseradish peroxidase-conjugated secondary antibodies for 1 h at room temperature. Signals were detected with enhanced chemiluminescence (Perkin Elmer Life Sciences, Inc., Boston, Mass.) and imaged with the FluorChem E digital imaging system from Protein Simple (Santa Clara, Calif.). Results were analyzed using the accompanying software Alphaview.

[4] = tested on: experimental mice; conditions: cited from earlier work
[5] = Aqueous solubility, statement only; format: physicochemical
[6] = tested on: endothelial and alveolar type II cells; conditions: cells cultured from lung tissues of mice following thoracic irradiation; Kalash et al In vivo 2013; cited from earlier work
[7] = TGFβ 10 ng/mL + MMS-350 0.5 mg/mL vs TGFβ1 alone, 72 h

| Structure (SMILES) | log P (lipophilicity) [1] | Collagen α2I mRNA levels in lung ([2]; MMS-350 (2%) oral daily, day 5) | hydroxyproline levels in lung ([2]; MMS-350 (2%) oral daily, day 14) | lung fibrosis, histology (H&E) ([2]; bleomycin 1 mg/kg intratracheal, MMS-350 (2%) 200 uL oral daily, day 14) | overall survival ([2]; bleomycin + MMS-350, bleomycin-treated mice 62.5%) | toxicity ([2]; given orally) | weight loss ([2]; vs mice treated with bleomycin alone, data not shown) | CTGF secreted protein [3, 7] | IGFBP3 (BP3) secreted protein [3, 7] | collagen 1α1 (Col1) protein [3, 7] | fibronectin (FN) protein [3, 7] | α-SMA protein (marker of fibroblast activation) [3, 7] | anti-fibrotic activity on delayed addition ([3]; compound added 30 min to 6 h after TGFβ) | mitigation of ionizing irradiation ([4]; Goff et al 2013) | radiation-induced pulmonary fibrosis ([4]; Kalash et al Radiat Res 2013) | survival of irradiated mice ([4]; Kalash et al Radiat Res 2013) | aqueous solubility [5] | pro-fibrotic gene expression [6] |
| --- | --- | --- | --- | --- | --- | --- | --- | --- | --- | --- | --- | --- | --- | --- | --- | --- | --- | --- |
| C[S+](C)[O-] [DMSO, dimethyl sulfoxide, reference compound] | -1.4 |  |  |  |  |  |  |  |  |  |  |  |  |  |  |  |  |  |
| CC1(C[S+]([O-])CC2(C)COC2)COC1 [MMS-350, 3,3′-Sulfinylbis(methylene)bis(3-methyloxetane)] | −0.7 | reduced | significant reduction | ameliorated fibrosis histologically | 87.5% | no toxicity | less weight loss | significantly decreased | significantly decreased | significantly decreased | significantly decreased | significantly decreased | profound anti-fibrotic activity | mitigator of ionizing irradiation | ameliorate radiation-induced pulmonary fibrosis | increase survival | exquisite aqueous solubility; also recorded: exceptionally high aqueous solubility | reduce pro-fibrotic gene expression |
